Measurements taken from patent publication US8030498B2, “Benzoylpyrazole compounds and herbicides containing them” (Ishihara Sangyo Kaisha, Ltd., priority 2005, dated 2011).

Legend:
soybean = experiment: Test Example 2: soil application on the day after sowing, growth inhibition rate, soybean; type: in vivo, Glycine max Merr.; settings: 250 g/ha active ingredient, observed on 19th to 24th day; for inhibition at 250 g/ha: Glycine max
Procedure, shortened: (§1)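 Seeds were sown in upland field soil in pots, and on the following day compounds formulated as wettable powders or emulsifiable concentrates were diluted in water (500 liter per hectare) and sprayed onto the soil at prescribed active-ingredient doses. Growth was scored visually 19–24 days later, 0 = untreated to 100% = complete kill.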

corn (Zea mays L.) = experiment: Test Example 1: foliar treatment, growth inhibition rate, corn; type: in vivo; settings: 31 g/ha active ingredient, visually observed 17th to 23rd day after application; for pest or weed control at 31 g/ha: Zea mays
Procedure, shortened: (§2)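 Post-emergence foliar spray, pot test; WP/EC formulation in water at 500 L/ha, + 0.1 vol % spreader; leaf stage at treatment: corn 2.0–3.5, green foxtail 1.0–3.0, rice 1.0–2.5, wheat 1.7–3.4; visual % inhibition at 17–23 DAT (0 = untreated, 100 = dead).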

rice = experiment: Test Example 2: soil application on the day after sowing, growth inhibition rate, rice; type: in vivo, Oryza sativa L.; settings: 250 g/ha active ingredient, observed on 19th to 24th day; for inhibition at 250 g/ha: Oryza sativa
Procedure, shortened: as §1

[1] = system: prickly sida (Sida spinosa L.); experiment: Test Example 1: foliar treatment, growth inhibition rate, prickly sida; type: in vivo; settings: 31 g/ha active ingredient, visually observed 17th to 23rd day after application
Procedure, shortened: (§3)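 Visual scoring of growth inhibition, 0% (untreated) to 100% (complete kill), on days 17–23 following post-emergence spray of formulated compound in water (500 L/ha, 0.1 vol % spreader); plants treated at set leaf stages, e.g. corn 2.0–3.5, wheat 1.7–3.4.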

[2] = system: soybean (Glycine max Merr.); experiment: Test Example 1: foliar treatment, growth inhibition rate, soybean; type: in vivo; settings: 31 g/ha active ingredient, visually observed 17th to 23rd day after application
Procedure, shortened: as §3

crabgrass = experiment: Test Example 2: soil application on the day after sowing, growth inhibition rate, crabgrass; type: in vivo, Digitaria sanguinalis L.; settings: 250 g/ha active ingredient, observed on 19th to 24th day; for inhibition at 250 g/ha: Digitaria sanguinalis
Procedure, shortened: as §1

redroot pigweed = experiment: Test Example 2: soil application on the day after sowing, growth inhibition rate, redroot pigweed; type: in vivo, Amaranthus retroflexus L.; settings: 250 g/ha active ingredient, observed on 19th to 24th day; for inhibition at 250 g/ha: Amaranthus retroflexus
Procedure, shortened: as §1

corn = experiment: Test Example 2: soil application on the day after sowing, growth inhibition rate, corn; type: in vivo, Zea mays L.; settings: 250 g/ha active ingredient, observed on 19th to 24th day; for inhibition at 250 g/ha: Zea mays
Procedure, shortened: as §1

[3] = system: redroot pigweed (Amaranthus retroflexus L.); experiment: Test Example 1: foliar treatment, growth inhibition rate, redroot pigweed; type: in vivo; settings: 31 g/ha active ingredient, visually observed 17th to 23rd day after application
Procedure, shortened: as §3

[4] = system: crabgrass (Digitaria sanguinalis L.); experiment: Test Example 1: foliar treatment, growth inhibition rate, crabgrass; type: in vivo; settings: 31 g/ha active ingredient, visually observed 17th to 23rd day after application; for pest or weed control at 31 g/ha: Digitaria sanguinalis
Procedure, shortened: as §3

barnyardgrass = experiment: Test Example 2: soil application on the day after sowing, growth inhibition rate, barnyardgrass; type: in vivo, Echinochloa crus-galli L.; settings: 250 g/ha active ingredient, observed on 19th to 24th day; for inhibition at 250 g/ha: Echinochloa crus-galli
Procedure, shortened: as §1

wheat = experiment: Test Example 2: soil application on the day after sowing, growth inhibition rate, wheat; type: in vivo, Triticum spp.; settings: 250 g/ha active ingredient, observed on 19th to 24th day; for inhibition at 250 g/ha: Triticum aestivum
Procedure, shortened: as §1

prickly sida = experiment: Test Example 2: soil application on the day after sowing, growth inhibition rate, prickly sida; type: in vivo, Sida spinosa L.; settings: 250 g/ha active ingredient, observed on 19th to 24th day; for inhibition at 250 g/ha: Sida spinosa
Procedure, shortened: as §1

[5] = system: greenfoxtail (Setaria viridis L.); experiment: Test Example 1: foliar treatment, growth inhibition rate, greenfoxtail; type: in vivo; settings: 31 g/ha active ingredient, visually observed 17th to 23rd day after application; for pest or weed control at 31 g/ha: Setaria viridis
Procedure, shortened: as §2

velvetleaf = experiment: Test Example 2: soil application on the day after sowing, growth inhibition rate, velvetleaf; type: in vivo, Abutilon theophrasti MEDIC.; settings: 250 g/ha active ingredient, observed on 19th to 24th day; for inhibition at 250 g/ha: Abutilon theophrasti
Procedure, shortened: as §1

greenfoxtail = experiment: Test Example 2: soil application on the day after sowing, growth inhibition rate, greenfoxtail; type: in vivo, Setaria viridis L.; settings: 250 g/ha active ingredient, observed on 19th to 24th day; for inhibition at 250 g/ha: Setaria viridis
Procedure, shortened: as §1

[6] = system: velvetleaf (Abutilon theophrasti MEDIC.); experiment: Test Example 1: foliar treatment, growth inhibition rate, velvetleaf; type: in vivo; settings: 31 g/ha active ingredient, visually observed 17th to 23rd day after application; for pest or weed control at 31 g/ha: Abutilon theophrasti
Procedure, shortened: as §2

[7] = system: barnyardgrass (Echinochloa crus-galli L.); experiment: Test Example 1: foliar treatment, growth inhibition rate, barnyardgrass; type: in vivo; settings: 31 g/ha active ingredient, visually observed 17th to 23rd day after application; for pest or weed control at 31 g/ha: Echinochloa crus-galli
Procedure, shortened: as §2

wheat (Triticum spp.) = experiment: Test Example 1: foliar treatment, growth inhibition rate, wheat; type: in vivo; settings: 31 g/ha active ingredient, visually observed 17th to 23rd day after application; for pest or weed control at 31 g/ha: Triticum
Procedure, shortened: as §2

rice (Oryza sativa L.) = experiment: Test Example 1: foliar treatment, growth inhibition rate, rice; type: in vivo; settings: 31 g/ha active ingredient, visually observed 17th to 23rd day after application; for pest or weed control at 31 g/ha: Oryza sativa
Procedure, shortened: as §2

Structure (SMILES)	Growth inhibition rate (%) Prickly sida [1]	Growth inhibition rate (%) Soybean [2]	Growth inhibition rate (%) redroot pigweed [3]	Growth inhibition rate (%) Soybean (soybean)	Growth inhibition rate (%) Corn (corn (Zea mays L.))	Growth inhibition rate (%) Rice (rice)	Growth inhibition rate (%) Crabgrass (crabgrass)	Growth inhibition rate (%) redroot pigweed (redroot pigweed)	Growth inhibition rate (%) Corn (corn)	Growth inhibition rate (%) Crabgrass [4]	Growth inhibition rate (%) Barnyardgrass (barnyardgrass)	Growth inhibition rate (%) Wheat (wheat)	Growth inhibition rate (%) Prickly sida (prickly sida)	Growth inhibition rate (%) Greenfoxtail [5]	Growth inhibition rate (%) Velvetleaf (velvetleaf)	Growth inhibition rate (%) Greenfoxtail (greenfoxtail)	Growth inhibition rate (%) Velvetleaf [6]	Growth inhibition rate (%) Barnyardgrass [7]	Growth inhibition rate (%) Wheat (wheat (Triticum spp.))	Growth inhibition rate (%) Rice (rice (Oryza sativa L.))	further results
CCSC(=O)Oc1c(C(=O)c2ccc(S(C)(=O)=O)c(OC)c2C)cnn1C [Compound No. 35, 5-(ethylthio)carbonyloxy-1-methylpyrazol-4-yl 3-(methoxy)-2-methyl-4-(methylsulfonyl)phenyl ketone]	40%	90%	90%	–	–	–	–	–	–	–	–	–	–	–	–	–	–	–	–	–	inhibition at 250 g/ha (soybean): 0%; pest or weed control at 31 g/ha (corn (Zea mays L.)): 0%; inhibition at 250 g/ha (rice): 90%; inhibition at 250 g/ha (crabgrass): 100%; inhibition at 250 g/ha (redroot pigweed): 95%; inhibition at 250 g/ha (corn): 0%; pest or weed control at 31 g/ha [4]: 80%; inhibition at 250 g/ha (barnyardgrass): 90%; inhibition at 250 g/ha (wheat): 0%; inhibition at 250 g/ha (prickly sida): 90%; pest or weed control at 31 g/ha [5]: 100%; inhibition at 250 g/ha (velvetleaf): 20%; inhibition at 250 g/ha (greenfoxtail): 70%; pest or weed control at 31 g/ha [6]: 80%; pest or weed control at 31 g/ha [7]: 90%; pest or weed control at 31 g/ha (wheat (Triticum spp.)): 0%; pest or weed control at 31 g/ha (rice (Oryza sativa L.)): 80%
CCSC(=O)Oc1c(C(=O)c2ccc(S(C)(=O)=O)c(OC(F)F)c2C)cnn1C [Compound No. 38, 5-(ethylthio)carbonyloxy-1-methylpyrazol-4-yl 3-(difluoromethoxy)-2-methyl-4-(methylsulfonyl)phenyl ketone]	40%	70%	20%	–	–	–	–	–	–	–	–	–	–	–	–	–	–	–	–	–	inhibition at 250 g/ha (soybean): 0%; pest or weed control at 31 g/ha (corn (Zea mays L.)): 0%; inhibition at 250 g/ha (rice): 60%; inhibition at 250 g/ha (crabgrass): 95%; inhibition at 250 g/ha (redroot pigweed): 90%; inhibition at 250 g/ha (corn): 0%; pest or weed control at 31 g/ha [4]: 0%; inhibition at 250 g/ha (barnyardgrass): 90%; inhibition at 250 g/ha (wheat): 0%; inhibition at 250 g/ha (prickly sida): 70%; pest or weed control at 31 g/ha [5]: 30%; inhibition at 250 g/ha (velvetleaf): 20%; inhibition at 250 g/ha (greenfoxtail): 70%; pest or weed control at 31 g/ha [6]: 60%; pest or weed control at 31 g/ha [7]: 80%; pest or weed control at 31 g/ha (wheat (Triticum spp.)): 0%; pest or weed control at 31 g/ha (rice (Oryza sativa L.)): 40%
CCOC(=O)c1c(S(C)(=O)=O)ccc(C(=O)c2cnn(CC)c2OC(=O)SCC)c1Cl [compound 59]	80%	70%	80%	10%	0%	80%	100%	100%	0%	80%	100%	10%	98%	70%	100%	100%	75%	90%	10%	50%	–
CCC(C)SC(=O)Oc1c(C(=O)c2ccc(S(C)(=O)=O)c(C(=O)OC)c2C)cnn1CC (centres unmarked) [compound 89]	60%	95%	90%	0%	20%	80%	95%	90%	0%	100%	70%	0%	50%	100%	70%	80%	100%	100%	20%	100%	–
CCn1ncc(C(=O)c2ccc(S(C)(=O)=O)c(C(=O)OC)c2C)c1OC(=O)SCc1ccccc1 [compound 93]	70%	80%	98%	0%	30%	90%	90%	100%	0%	80%	95%	0%	75%	95%	65%	100%	80%	95%	0%	70%	–
COC(=O)c1c(S(C)(=O)=O)ccc(C(=O)c2cnn(C)c2OC(=O)SCc2ccccc2)c1C [compound 92]	10%	10%	10%	0%	0%	80%	95%	70%	0%	0%	80%	0%	60%	60%	50%	70%	70%	0%	0%	0%	–
CSC(=O)Oc1c(C(=O)c2ccc(S(C)(=O)=O)c(C3=NOCC3)c2C)cnn1C [compound 40]	70%	90%	90%	60%	10%	90%	100%	100%	0%	80%	100%	10%	85%	95%	90%	100%	90%	95%	0%	70%	–
